Results reported in US10085940B2, “Liposomes co-encapsulating a bisphosphonate and an amphipathic agent” (YISSUM RESEARCH DEVELOPMENT COMPANY OF THE HEBREW …, priority 2011, dated 2018).

Tests used:
[1] = system: M109R (doxorubicin resistant) carcinoma; assay type: in vivo, mouse; details: M109R footpad tumor, i.v. 5 mg/kg doxorubicin or equivalent ALD, D7, D14, D21
Description: The tumor model used here is the mouse M109R (doxorubicin resistant) carcinoma.
M109R tumor cells (10^6 cells/0.05 ml) were inoculated into the subcutaneous space of the mouse right hind footpad. Five to 7 days after inoculation, mice injected with M109R cells developed solid tumors as measured by the increased thickening of the footpad. Different liposomes were injected i.v. at dose levels of 5 mg/kg based on Doxorubicin content or an amount of Alendronate equivalent to that present in the co-encapsulated formulation at doxorubicin dose of 5 mg/kg. […] Treatment was administered on Day 7 (D7), Day 14 (D14) and Day 21 (D21). Kaplan-Meyer curves were based on an experimental endpoint of tumor size equal or greater than 4 mm.

KB-hiFR = test: In vitro cytotoxicity, 72 hr continuous exposure, methylene blue staining; assay type: cell-based, human; details: for IC50: KB-hiFR, 72 hr continuous exposure
Description: (§1) Cytotoxicity was assayed using varying concentrations of ALD (0.1-200 μM) under standard 72 hr, continuous exposure, in 96-multiwell assays. Growth rate was assessed colorimetrically based on methylene blue staining and data was obtained with an automatic plate reader and IC50 values were determined

KG-1 cells = test: PKH26/AnnexinV flow cytometry of KG-1 cells co-cultured with γδ T-cells; assay type: cell-based, human; details: 20 μg/mL (Doxil 13.3 μg/mL) 24 h, then 4 h with γδ T-cells 1:1 or 1:5, 100 U/mL IL-2
Description: The following method is based on the procedure described by Fischer and Mackensen (2003) The flow cytometric PKH-26 assay for the determination of T-cell mediated cytotoxic activity. Methods 31: 135-142.
Specifically, 1×10^5 KG-1 cells, previously stained with PKH26 Red Fluorescent, were plated in a 24 well plate in 1 mL of complete media. These cells were then treated with different preparations: • (i) 20 μg/mL Alendronate (free Alendronate) • (ii) 20 μg/mL of liposomal Alendronate+Doxorubicin (L-ALD/DOX), • (iii) 20 μg/mL of folate targeted liposomal Alendronate+Doxorubicin (FR-L-ALD/DOX); • (iv) 13.3 μg/mL Doxil (the amount of doxorubicin correspondent to doxorubicin in L-ALD/DOX) • (v) Empty liposomes (stealth) • (vi) Control—no treatment.
Cells were incubated for 24 h at 37° C. with a treatment formulation according to the above groups. After 24 h, each group of treated KG-1 cells was co-cultured with γδ T_cells at a ratio of 1 tumor cell to 1 γδ T-cell and at 1 tumor cell to 5 γδ T-cells. In addition, 100 U/mL of IL-2 was also given to each treatment group. […]
After 4 h incubation, the cell cultures were stained with AnnexinV FITC (BD) in order to measure the percentage of apoptotic cells. The samples were analysed by flow cytometry and the principle is that tumor cell death is measured by analysing PKH26^+AnnexinV^+ cells.

[2] = system: IGROV-1 ovarian carcinoma; test: In vitro cytotoxicity, 72 hr continuous exposure, methylene blue staining; assay type: cell-based, human
Description: as §1
Cytotoxicity was assayed as described above in Example 1.

[3] = system: N87 human gastric carcinoma cells; test: as above; assay type: cell-based; details: N-87
Description: as §1

| SMILES | anti-tumor activity [1] | IC50 (KB-hiFR; Homo sapiens) | cytotoxicity (in words) (KB-hiFR; stated for KB, N87 and IGROV cell lines together (FIGS. 3B-3D)) | tumor cell killing / sensitivity to γδ T-cells (PKH26+AnnexinV+ cells) (KG-1 cells) | IC50 [2] | IC50 [3] | IC50 (KB-hiFR) |
| --- | --- | --- | --- | --- | --- | --- | --- |
| NCCCC(O)(P(=O)(O)O)P(=O)(O)O [Free ALD, 4-amino-1-hydroxybutylidene-1,1-bisphosphonic acid] | no anti-tumor effect | > 20000 nM | essentially no cytotoxicity | enhances tumour sensitivity to γδ T-cells' cytotoxic action | – | – | – |
| COc1cccc2c1C(=O)c1c(O)c3c(c(O)c1C2=O)C[C@@](O)(C(=O)CO)C[C@@H]3O[C@H]1C[C@H](N)[C@H](O)[C@H](C)O1 [Free DOX, doxorubicin] | – | – | – | – | 250 nM | 3120 nM | 40 nM |
